Measured values reported in paper PMC9709406 (Frontiers in Pharmacology, 2022).
Values joined by “and” are separate entries in the source; they are usually repeats but may differ in a detail not shown here. Identical values can stand only once. Like-named read-outs stand apart in the source and are kept apart here.

Experiments:
[1] = system: H1975 cells; test: MTT assay for cell proliferation and cytotoxicity, H1975; format: cell-based, human; conditions: Homo sapiens, NCI-H1975, 48 h, MTT, 48 h, H1975, n = 5; read-out: IC50 48 h H1975
Source text: (§1) The human cancer cells (H1650, H1975, KYSE70, KYSE410 and KYSE450) were purchased from the Type Culture Collection of the Chinese Academy of Sciences (Shanghai, China). The human immortalized normal esophageal epithelial cell line SHEE was donated by Dr. Enmin Li from the Laboratory of Tumor Pathology (Shantou University Medical College, Shantou, Guangdong, China). Drug-resistant cells (H1650TR, H1975OR, KYSE70TR, KYSE410TR and KYSE450TR) were induced by China-US (Henan) Hormel Cancer Institute. The cellswere cultured in RPMI-1640 complete growth medium containing 100 U/mL penicillin-streptomycin and 10% FBS. Based on the above medium formula, 100 nm/L paclitaxel was added in taxol-resistant cells, 100 nm/L gefitinib was added in gefitinib-resistant cells. The cells were incubated at 37 °C in an atmosphere containing 5% of CO2. The compounds were dissolved in DMSO to make a 50 mM stock solution and were diluted to the concentration of working solutions with complete growth medium before administration.
Cells were seeded in 96-well plates with 2,200–2,500 cells/well in100 μL. One day after seeding, test compounds with the concentration between 0 and 50 μM were added with 0.1% DMSO as control. Five multiple wells for each concentration. […] The absorbance at 490 nm was measured using a microplate reader (Thermo).

[2] = system: H1650 cells; test: MTT assay for cell proliferation and cytotoxicity, H1650; format: cell-based; conditions: Homo sapiens, NCI-H1650, 48 h, H1650, n = 5
Source text: as §1
(§2) Cells were seeded in 96-well plates with 2,200–2,500 cells/well in100 μL. One day after seeding, test compounds with the concentration between 0 and 50 μM were added with 0.1% DMSO as control. Five multiple wells for each concentration. After 48 h, MTT was added and incubated in the plate for 1–4 h in the incubator. The absorbance at 490 nm was measured using a microplate reader (Thermo).

[3] = system: KYSE410 cells; test: MTT assay, KYSE410; format: cell-based, human; conditions: for IC50: Homo sapiens, KYSE-410, MTT, 48 h, KYSE410, n = 5, read-out: IC50 48 h KYSE410
Source text: as §1, §2

[4] = system: KYSE450 cells; test: MTT assay, KYSE450; format: cell-based, human; conditions: for IC50: Homo sapiens, KYSE-450, MTT, 48 h, KYSE450, n = 5, read-out: IC50 48 h KYSE450; for absorbance 490 nm, single well / mean absorbance 490 nm (row G) / mean absorbance 490 nm minus background (row H): KYSE450
Source text: as §1, §2

[5] = system: KYSE70 cells; test: MTT assay, KYSE70; format: cell-based, human; conditions: for IC50: Homo sapiens, KYSE-70, MTT, 48 h, KYSE70, n = 5
Source text: as §1, §2

[6] = system: SHEE cells; test: MTT assay, normal esophageal epithelial cell line SHEE; format: cell-based; conditions: Homo sapiens, 48 h, n = 5
Source text: as §1, §2

[7] = molecular target: T1, EGFR (Homo sapiens, UniProt P00533); test: EGFR kinase assay (ELISA); format: biochemical; conditions: 25°C
T1 construct: purchased Active MOTIF
Procedure: Kinase inhibitory activities of the compounds were evaluated using the Protein Tyrosine Kinase Assay Kit (SignalChem (British Columbia, Canada)). The kinase enzyme of EGFR was purchased from Active MOTIF. The ELISA experiments were carried out according the instructions of the kit. Active kinases were incubated with indicated compounds in 1 × reaction buffer containing 20 μM substrate at 25°C for 1 h and 2 h, respectively. The absorbance was read with a multimode plate reader (PerkinElmer, United States) at 450 nm.

[8] = concentration 12.5 (unit not given)
[9] = concentration 25 (unit not given)
[10] = concentration 50 (unit not given)
[11] = concentration 100 (unit not given)
[12] = incubation 1 h, read-out: IC50 EGFR 1 h
[13] = incubation 2 h, read-out: IC50 EGFR 2 h

T1 sequence (P00533 25-1210): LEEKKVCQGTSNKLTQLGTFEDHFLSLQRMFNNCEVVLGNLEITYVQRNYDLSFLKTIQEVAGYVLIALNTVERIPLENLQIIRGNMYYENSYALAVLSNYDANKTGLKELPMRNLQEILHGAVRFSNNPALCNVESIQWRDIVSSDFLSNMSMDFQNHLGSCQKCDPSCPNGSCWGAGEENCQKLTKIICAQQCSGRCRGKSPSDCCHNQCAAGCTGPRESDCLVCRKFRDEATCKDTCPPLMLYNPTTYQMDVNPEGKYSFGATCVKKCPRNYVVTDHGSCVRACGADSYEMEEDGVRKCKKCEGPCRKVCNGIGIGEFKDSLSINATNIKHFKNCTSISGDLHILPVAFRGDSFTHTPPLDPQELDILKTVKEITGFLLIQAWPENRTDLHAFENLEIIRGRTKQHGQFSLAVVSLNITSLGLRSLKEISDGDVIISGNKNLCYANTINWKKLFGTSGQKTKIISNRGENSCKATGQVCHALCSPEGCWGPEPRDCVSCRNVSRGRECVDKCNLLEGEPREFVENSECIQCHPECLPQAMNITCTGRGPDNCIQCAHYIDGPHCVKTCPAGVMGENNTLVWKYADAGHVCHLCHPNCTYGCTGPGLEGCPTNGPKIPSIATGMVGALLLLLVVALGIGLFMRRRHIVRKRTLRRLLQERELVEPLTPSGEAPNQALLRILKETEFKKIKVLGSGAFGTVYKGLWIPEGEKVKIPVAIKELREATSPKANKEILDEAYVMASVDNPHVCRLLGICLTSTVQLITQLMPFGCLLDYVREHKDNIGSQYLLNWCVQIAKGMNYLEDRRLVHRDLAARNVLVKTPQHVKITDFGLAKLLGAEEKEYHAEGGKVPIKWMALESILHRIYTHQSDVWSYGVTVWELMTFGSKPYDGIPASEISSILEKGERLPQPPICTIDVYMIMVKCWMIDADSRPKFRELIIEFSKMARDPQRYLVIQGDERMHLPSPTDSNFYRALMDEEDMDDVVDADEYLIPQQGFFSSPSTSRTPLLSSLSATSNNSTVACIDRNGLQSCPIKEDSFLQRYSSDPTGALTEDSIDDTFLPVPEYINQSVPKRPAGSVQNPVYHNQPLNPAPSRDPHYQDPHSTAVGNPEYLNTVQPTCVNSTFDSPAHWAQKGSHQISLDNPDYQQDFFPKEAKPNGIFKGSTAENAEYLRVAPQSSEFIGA

Row | Structure (SMILES) | IC50 [1] | IC50 [2] | IC50 [3] | blank-corrected absorbance 490 nm relative to control (fraction) ([3]; KYSE410, concentration 12.5) | inhibition (1 minus fraction of control) ([3]; KYSE410, concentration 12.5) | blank-corrected absorbance 490 nm relative to control (fraction) ([3]; KYSE410, concentration 25) | inhibition (1 minus fraction of control) ([3]; KYSE410, concentration 25) | blank-corrected absorbance 490 nm relative to control (fraction) ([3]; KYSE410, concentration 50) | inhibition (1 minus fraction of control) ([3]; KYSE410, concentration 50) | blank-corrected absorbance 490 nm relative to control (fraction) ([3]; KYSE410, concentration 100) | inhibition (1 minus fraction of control) ([3]; KYSE410, concentration 100) | melting point | IC50 [4] | absorbance 490 nm, single well [4, 8] | mean absorbance 490 nm (row G) [4, 8] | mean absorbance 490 nm minus background (row H) [4, 8] | absorbance 490 nm, single well [4, 9] | mean absorbance 490 nm (row G) [4, 9] | mean absorbance 490 nm minus background (row H) [4, 9] | absorbance 490 nm, single well [4, 10] | further results
1 | Clc1ccccc1-n1cc(-c2cccc(Nc3ncnc4cc5c(cc34)OCCOCCOCCO5)c2)nn1 [compound 3e] | 13.1 ± 1.02 µM | 5.61 ± 0.3 µM | 11.7 ± 1.01 µM | 0.4649 | 0.5351 | 0.2124 | 0.7876 | 0.02952 | 0.9705 | 0.05985 | 0.9402 | 125 to 127 °C | 21.8 ± 1.47 µM | 0.5603 and 0.5422 and 0.5648 and 0.5469 | 0.5535 | 0.4989 | 0.3988 and 0.3524 and 0.3487 and 0.3334 | 0.3583 | 0.3036 | 0.0685 and 0.0639 and 0.0619 and 0.065 and 0.0672 | mean absorbance 490 nm (row G) [4, 10]: 0.0653; mean absorbance 490 nm minus background (row H) [4, 10]: 0.01062; absorbance 490 nm, single well [4, 11]: 0.0642 and 0.0659 and 0.0644 and 0.0663; mean absorbance 490 nm (row G) [4, 11]: 0.0652; mean absorbance 490 nm minus background (row H) [4, 11]: 0.01052; IC50 [5]: 7.75 ± 0.68 µM; blank-corrected absorbance 490 nm relative to control (fraction) ([5]; KYSE70, concentration 12.5): 0.1936; inhibition (1 minus fraction of control) ([5]; KYSE70, concentration 12.5): 0.8064; blank-corrected absorbance 490 nm relative to control (fraction) ([5]; KYSE70, concentration 25): 0.0586; inhibition (1 minus fraction of control) ([5]; KYSE70, concentration 25): 0.9414; blank-corrected absorbance 490 nm relative to control (fraction) ([5]; KYSE70, concentration 50): 0.07267; inhibition (1 minus fraction of control) ([5]; KYSE70, concentration 50): 0.9273; blank-corrected absorbance 490 nm relative to control (fraction) ([5]; KYSE70, concentration 100): 0.08298; inhibition (1 minus fraction of control) ([5]; KYSE70, concentration 100): 0.917; IC50 [6]: 10.3 ± 0.84 µM; IC50 [7, 12]: 1.29 µM; IC50 [7, 13]: 4.41 µM
2 | COc1ccccc1-n1cc(-c2cccc(Nc3ncnc4cc5c(cc34)OCCOCCOCCO5)c2)nn1 [compound 3d] | 19.4 ± 1.21 µM | 10.8 ± 0.89 µM | 8.67 ± 0.71 µM | 0.2787 | 0.7213 | -0.00175 | 1.002 | 0.004317 | 0.9957 | 0.02345 | 0.9766 | 121 to 124 °C | 13.5 ± 1.21 µM | 0.4487 and 0.4214 and 0.4264 and 0.4518 | 0.4371 | 0.3824 | 0.0614 and 0.062 and 0.0618 | 0.06165 | 0.00697 | 0.0565 and 0.0602 and 0.0592 and 0.0604 | mean absorbance 490 nm (row G) [4, 10]: 0.05908; mean absorbance 490 nm minus background (row H) [4, 10]: 0.004395; absorbance 490 nm, single well [4, 11]: 0.0606 and 0.0657 and 0.0613 and 0.0623; mean absorbance 490 nm (row G) [4, 11]: 0.06248; mean absorbance 490 nm minus background (row H) [4, 11]: 0.007795; IC50 [5]: 7.35 ± 0.7 µM; blank-corrected absorbance 490 nm relative to control (fraction) ([5]; KYSE70, concentration 12.5): 0.1496; inhibition (1 minus fraction of control) ([5]; KYSE70, concentration 12.5): 0.8504; blank-corrected absorbance 490 nm relative to control (fraction) ([5]; KYSE70, concentration 25): 0.05438; inhibition (1 minus fraction of control) ([5]; KYSE70, concentration 25): 0.9456; blank-corrected absorbance 490 nm relative to control (fraction) ([5]; KYSE70, concentration 50): 0.05391; inhibition (1 minus fraction of control) ([5]; KYSE70, concentration 50): 0.9461; blank-corrected absorbance 490 nm relative to control (fraction) ([5]; KYSE70, concentration 100): 0.08017; inhibition (1 minus fraction of control) ([5]; KYSE70, concentration 100): 0.9198; IC50 [6]: 7.2 ± 0.71 µM; IC50 [7, 12]: 5.14 µM; IC50 [7, 13]: 26 µM
